Series [1] can be described thus: Thermodynamic aqueous solubility. The format is physicochemical. As to the method: Example 6: Thermodynamic Aqueous Solubility
Aqueous solubility was determined by suspending sufficient compound in water to give a maximum final concentration of ≧20 mg·ml-1 of the parent free-form of the compound. The suspension was equilibrated at 25° C. for 24 hours then the pH was measured. The suspension was then filtered through a glass fibre C filter into a 96 well plate unless stated otherwise. The filtrate was then diluted by a factor of 101. Quantitation was by HPLC with reference to a standard solution of approximately 0.25 mg·ml^−1 in DMSO. Different volumes of the standard, diluted and undiluted sample solutions were injected. The solubility was calculated using the peak areas determined by integration of the peak found at the same retention time as the principal peak in the standard injection.
Analysis was performed on an Agilent HP1100 series system equipped with a diode array detector and using ChemStation software vB.02.01-SR1.

The test system of series [2] is DK-PGD2-induced peripheral blood leukocyte influx. Description: Guinea pig IV DK-PGD2-induced peripheral blood leukocyte influx. The format is in vivo. The settings on record: for EC50 / ED50: Cavia porcellus, Leukocyte, calculated; for EC50: iv, plasma concentration; for ED50: oral. As to the method: Example 19: Guinea Pig IV-DKPGD2-Induced Peripheral Blood Leukocyte to Influx
The ability of Compound 2 to inhibit leukocyte migration in vivo was assessed using intravenous injection of 13,14-dihydro-15-keto-prostaglandin D2 (DK-PGD2). Methods were adapted from those detailed Shichijo et al., 2003, Journal of Pharmacology and Experimental Therapeutics, 307:518-525. Male Hartley guinea pigs were immunized with ovalbumin (OVA) on day 0 by intraperitoneal (IP) injection of 1 ml of a 100 μg/ml solution in Imject Alum. They were then used in the DK-PGD2 procedure between days 14 and 21. Subjects were randomly assigned to receive either vehicle (0.5% methyl cellulose, 4 ml/kg, oral (PO)) or one of three to four doses of test compound. Two hours or eighteen hours after dosing, animals were anesthetized with ketamine and challenged with DK-PGD2 (1 mg/kg, IV). Thirty minutes after IV administration, blood was collected via the marginal ear vein into EDTA tubes for cell analysis. 10 μl blood was lysed in 190 μl water followed by a further 20-fold dilution in PBS. A 10 μl fraction was mixed with equal parts trypan blue and loaded on a hemocytometer. Cells were visualized at a magnification of 40× using a LabPro light microscope and totals counted and recorded. Cells are expressed as total cells×10^8 per ml of blood Inhibition of this effect is determined statistically using Graphpad prism.

Series [3] is described as follows: Plasma concentrations in guinea pig DK-PGD2 leukocyte influx study. It counts as in vivo. The conditions noted are these: Hartley; for concentration at 18.5 h: read-out: concentration of Compound 1 in plasma. The protocol: In the 2 hr study, intravenous DK-PGD2 (IV DK-PGD2) increased the number of peripheral blood leukocytes, mainly lymphocytes, which likely reflects recruitment from bone marrow. […] Plasma concentrations taken 2.5 hours following oral Compound 2 were 45 nM±36 and 120 nM±46 in the 10 mg/kg and 30 mg/kg dose groups, respectively.
In the 18 hr guinea pig study, a significant increase in peripheral blood leukocytes was also observed following IV DK-PGD2 challenge. […] The concentration of Compound 1 in plasma recovered 18.5 hours following oral dose was 4 nM±7, 21 nM±19 and 17 nM±10 in the 10 mg/kg, 30 mg/kg and 100 mg/kg dose groups, respectively.

In series [4] the target is T1, CYP1A2 (Homo sapiens (Human), UniProt P05177). The conditions noted are these: microsomes, pH 7.4.
The subject of series [5] is ovalbumin (OVA)-induced allergic rhinitis. Description: Mouse allergic rhinitis model. The format is in vivo. The settings on record: 10 mg/kg PO daily. As to the method: Example 18: Mouse Allergic Rhinitis Model
Compound 2 was evaluated in a mouse model of ovalbumin (OVA)-induced allergic rhinitis in which nasal ovalbumin challenges to OVA-primed mice elicits an increase in sneezing and nasal rubs (Methods were adapted from those detailed in Nakaya, M., et al. 2006, Laboratory Investigation, 86:917-926). OVA-primed mice received an intranasal challenge of OVA daily for 5 consecutive days. The number of sneezes and nasal rubs were counted over an 8 minute recording session on days 1, 3 and 5 immediately following OVA challenge. OVA caused a significant increase in both sneezing behavior and nasal rubs when compared to intranasal phosphate buffered saline (PBS) challenge. […] The plasma exposure for Compound 1 measured in a satellite group was 1360 nM, 460 nM, 210 nM and 90 nM for time points 1, 2, 4, and 6 hr post-dose, respectively.

Series [6] deals with T1, CYP1A2. Briefly: Extracellular cytochrome P450 inhibition (microsomes).
A further series deals with CYP3A4 (Homo sapiens (Human), UniProt P08684). The description is as above. The format is in vitro ADME.
Where [7] appears, read: water, listed as Amorphous Compound 2, sodium salt.

Structures can show the parent of a compound that is named as a salt. Where two headings read alike, the source gives them in different places. Some results are limits rather than exact numbers.

Sequence of CYP3A4 (P08684 whole entry): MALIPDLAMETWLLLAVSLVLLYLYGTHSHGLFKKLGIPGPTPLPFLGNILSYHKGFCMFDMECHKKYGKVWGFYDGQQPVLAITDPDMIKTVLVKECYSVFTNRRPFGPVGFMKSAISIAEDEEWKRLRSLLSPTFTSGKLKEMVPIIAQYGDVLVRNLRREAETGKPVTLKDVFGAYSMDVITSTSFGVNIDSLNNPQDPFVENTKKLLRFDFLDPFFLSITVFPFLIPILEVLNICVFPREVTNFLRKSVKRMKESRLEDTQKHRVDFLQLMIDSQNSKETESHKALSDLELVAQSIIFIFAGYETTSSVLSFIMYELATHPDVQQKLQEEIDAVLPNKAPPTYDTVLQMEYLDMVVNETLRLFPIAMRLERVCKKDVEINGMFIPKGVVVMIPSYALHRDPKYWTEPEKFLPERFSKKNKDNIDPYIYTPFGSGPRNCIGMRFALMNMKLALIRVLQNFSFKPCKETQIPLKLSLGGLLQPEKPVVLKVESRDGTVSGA
T1 sequence (P05177 whole entry): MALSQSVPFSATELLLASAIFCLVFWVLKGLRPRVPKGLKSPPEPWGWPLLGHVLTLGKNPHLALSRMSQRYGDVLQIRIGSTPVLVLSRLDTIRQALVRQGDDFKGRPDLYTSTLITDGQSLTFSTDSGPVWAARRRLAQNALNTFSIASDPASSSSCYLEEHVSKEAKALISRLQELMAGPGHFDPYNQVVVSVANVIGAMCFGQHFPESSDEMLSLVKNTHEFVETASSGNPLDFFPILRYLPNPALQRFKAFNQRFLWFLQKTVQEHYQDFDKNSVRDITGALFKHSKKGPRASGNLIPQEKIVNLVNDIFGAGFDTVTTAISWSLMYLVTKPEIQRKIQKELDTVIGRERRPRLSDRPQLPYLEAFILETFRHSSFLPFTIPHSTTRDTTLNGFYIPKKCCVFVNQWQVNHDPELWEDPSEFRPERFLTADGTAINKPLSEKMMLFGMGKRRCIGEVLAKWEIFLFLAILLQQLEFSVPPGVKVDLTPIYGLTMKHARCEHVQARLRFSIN

The EC50 is the concentration giving half of the maximal effect. Turning to `COc1ccc(CC(=O)O)cc1Oc1ccc(NC(=O)C(C)(C)C)cc1CSC(C)(C)C` [Compound 1, 2-(3-(2-((tert-butylthio)methyl)-4-(2,2-dimethyl-propionylamino)phenoxy)-4-methoxyphenyl)acetic acid], the “Solubility mg/ml Free Base equivalent” value in series [1] (test solvent pH 1.5, 25° C., 24 hours, listed as Compound 1 Pattern 1) worked out at 0.013 mg/mL; in series [1] (test solvent pH 4.0, 25° C., 24 hours, listed as Compound 1 Pattern 1), 0.0059 mg/mL; in series [1] (test solvent pH 6.5, 25° C., 24 hours, listed as Compound 1 Pattern 1), 0.39 mg/mL; in series [1] (test solvent pH 7.4, 25° C., 24 hours, listed as Compound 1 Pattern 1), 7.6 mg/mL. Further, the solubility at 24 h in series [1] (test solvent pH 5.0, 25 °C, pH 5, aqueous buffer, thermodynamic from solid, test solvent pH 5.0, 25° C., 24 hours, read-out: Solubility mg/ml Free Base equivalent) came out at 0.027 mg/mL. Besides, in series [1] (water, listed as Pattern 1 of Compound 1), the “Thermodynamic solubility in water” value came out at 6200 µg/mL. For the same molecule, the EC50 in series [2] (18 hr study, read-out: 18-hr EC50, inhibition of IV-DK-PGD2-induced leukocyte influx) was 0.018 µM. Moreover, the concentration at 18.5 h in series [3] (18.5 hours after oral 10 mg/kg) is 4 nM; in series [3] (18.5 hours after oral 30 mg/kg), 21 nM; in series [3] (18.5 hours after oral 100 mg/kg) it was 17 nM.

The IC50 is the concentration that inhibits the measured activity by half. The ED50 is the midpoint of the dose-response relation. Take `COc1ccc(CC(=O)O)cc1Oc1ccc(NC(=O)C(C)(C)C)cc1CSC(C)(C)C` [Compound 2, 2-(3-(2-((tert-butylthio)methyl)-4-(2,2-dimethyl-propionylamino)phenoxy)-4-methoxyphenyl)acetic acid, sodium salt]: the “Solubility mg/ml Free Base equivalent” value in series [1] (test solvent pH 1.5, 25° C., 24 hours, listed as Compound 2 Pattern 1, sodium salt) amounted to 0.0058 mg/mL; in series [1] (test solvent pH 4.0, 25° C., 24 hours, listed as Compound 2 Pattern 1, sodium salt), 0.0023 mg/mL; in series [1] (test solvent pH 5.0, 25° C., 24 hours, listed as Compound 2 Pattern 1, sodium salt), 0.04 mg/mL; in series [1] (test solvent pH 6.5, 25° C., 24 hours, listed as Compound 2 Pattern 1, sodium salt) it was 4.1 mg/mL; in series [1] (test solvent pH 7.4, 25° C., 24 hours, listed as Compound 2 Pattern 1, sodium salt), 18.0 mg/mL. The “pH of Unfiltered Saturated solution” value in series [1] (test solvent pH 1.5, listed as Compound 2 Pattern 1, sodium salt) is given as 2.73; in series [1] (test solvent pH 4.0, listed as Compound 2 Pattern 1, sodium salt) it was 4.67; in series [1] (test solvent pH 5.0, listed as Compound 2 Pattern 1, sodium salt), 5.88; in series [1] (test solvent pH 6.5, listed as Compound 2 Pattern 1, sodium salt), 7.06; in series [1] (test solvent pH 7.4, listed as Compound 2 Pattern 1, sodium salt), 7.97. Also, the “Thermodynamic solubility in water” value in series [1] (setting [7]) was over 20000 µg/mL. In addition, the “pH of unfiltered solution” value in series [1] (setting [7]) came out at 8.18. Moreover, the IC50 against CYP1A2 [4] was over 50 µM; against CYP1A2 [6] it was over 25 µM; at CYP3A4 (3A4, midazolam 1-hydroxylation, read-out: IC50), over 50 µM; at CYP3A4 (3A4, testosterone 6β-hydroxylation, read-out: IC50), 26 µM; on CYP3A4 (not a potent inhibitor, read-out: IC50, CYP3A4 (summary statement)) it was over 25 µM. For the same molecule, the “% inhibition of DK-PGD2-induced peripheral blood leukocyte increase” value is listed as 19 (±23) % in series [2] (2 hr study, 10 mg/kg oral) and 107 (±9) % in series [2] (2 hr study, 30 mg/kg oral). Further, the “% inhibition of peripheral blood leukocyte numbers” value was 29 (±14) % in series [2] (18 hr study, 10 mg/kg oral); 50 (±8) % in series [2] (18 hr study, 30 mg/kg oral); 77 (±12) % in series [2] (18 hr study, 100 mg/kg oral). Further, the EC50 in series [2] (2 hr study, read-out: EC50 associated with ED50) was 0.05 µM. Further, the ED50 was 11 mg/kg in series [2] (2 hr study) and 63 mg/kg in series [2] (18 hr study). Besides, the “nasal responses (sneezes and nasal rubs) after OVA challenge” value in series [5] is “significantly reduced”. Further, the results for the concentration at 2.5 h in series [3] (2.5 hours after oral 10 mg/kg) and in series [3] (2.5 hours after oral 30 mg/kg) were 45 nM and 120 nM, respectively.

These data come from patent US9688624B2, “DP2 antagonist and uses thereof” (Brickell Biotech, Inc., priority 2010, dated 2017).
